Reference: PubChem BioAssay AID1963429 (Molecular Pharmacology Branch, DTP, NCI, 2024)

Test system: 126254-015-R-J1-PDC complex spheroid growth, % test/control
Test: Anticancer human tumor 126254-015-R-J1-PDC patient-derived soft tissue sarcoma cell line growth inhibition [Asc]
Details: for IC50: curve of first compound; for viability, T/C: stronger effect = lower value; active = viability on the fitted dose curve at most 10% of control; inactive = the rest
Summary of the method: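 Complex solid-tumor spheroids incorporating human endothelial and mesenchymal stem cells received single agents or combinations over half-log dilution ranges anchored to clinical Cmax.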

[1] = second compound 0.01 µM, first compound 0.0316 µM
[2] = second compound 0.01 µM, first compound 0.1 µM
[3] = second compound 0.01 µM, first compound 0.316 µM
[4] = second compound 0.01 µM, first compound 1 µM
[5] = second compound 0.01 µM, first compound 3.16 µM
[6] = second compound 0.01 µM, first compound 10 µM
[7] = second compound 0.0316 µM, first compound 0.0316 µM
[8] = second compound 0.0316 µM, first compound 0.1 µM
[9] = second compound 0.0316 µM, first compound 0.316 µM
[10] = second compound 0.0316 µM, first compound 1 µM
[11] = second compound 0.0316 µM, first compound 3.16 µM
[12] = second compound 0.0316 µM, first compound 10 µM
[13] = second compound 0.1 µM, first compound 0.0316 µM
[14] = second compound 0.1 µM, first compound 0.1 µM
[15] = second compound 0.1 µM, first compound 0.316 µM
[16] = second compound 0.1 µM, first compound 1 µM
[17] = second compound 0.1 µM, first compound 3.16 µM
[18] = second compound 0.1 µM, first compound 10 µM
[19] = second compound 0.316 µM, first compound 0.0316 µM
[20] = second compound 0.316 µM, first compound 0.1 µM
[21] = second compound 0.316 µM, first compound 0.316 µM
[22] = second compound 0.316 µM, first compound 1 µM
[23] = second compound 0.316 µM, first compound 3.16 µM
[24] = second compound 0.316 µM, first compound 10 µM
[25] = second compound 1 µM, first compound 0.0316 µM
[26] = second compound 1 µM, first compound 0.1 µM
[27] = second compound 1 µM, first compound 0.316 µM
[28] = second compound 1 µM, first compound 1 µM
[29] = second compound 1 µM, first compound 3.16 µM
[30] = second compound 1 µM, first compound 10 µM
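Note: spheroids exposed to compound for seven days.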
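Throughout, for viability, T/C: 100% = DMSO vehicle control wells.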

C=C(F)C(=O)N1CCN(c2nc(OCC3CCCN3C)nc3c2CCN(c2cccc4cccc(Cl)c24)C3)CC1CC#N (stereo not given) + CNC(C)C(=O)NC1CN(S(=O)(=O)c2cccc(S(=O)(=O)N3CCC4CCC(C(=O)NC(c5ccccc5)c5ccccc5)N4C(=O)C(NC(=O)C(C)NC)C3)c2)CCC2CCC(C(=O)NC(c3ccccc3)c3ccccc3)N2C1=O
2200 nM: IC50 (second compound 0.0316 µM)
2550 nM: IC50 (second compound 0.01 µM)
505 nM: IC50 (second compound 1 µM)
inactive: viability, T/C [1] 80% | viability, T/C [2] 89.3% | viability, T/C [3] 80.1% | viability, T/C [4] 74.8% | viability, T/C [5] 44.3% | viability, T/C [7] 71.4% | viability, T/C [8] 71% | viability, T/C [9] 71.4% | viability, T/C [10] 63.9% | viability, T/C [11] 43.5% | viability, T/C [13] 61% | viability, T/C [14] 67.3% | viability, T/C [15] 64.6% | viability, T/C [16] 53.2% | viability, T/C [17] 35.2% | viability, T/C [19] 65.4% | viability, T/C [20] 66.1% | viability, T/C [21] 64% | viability, T/C [22] 45% | viability, T/C [23] 40.7% | viability, T/C [25] 58.7% | viability, T/C [26] 59.2% | viability, T/C [27] 57.5% | viability, T/C [28] 40.4% | viability, T/C [29] 27.4%
1210 nM: IC50 (second compound 0.316 µM)
active: viability, T/C [6] 0.18% | viability, T/C [12] 0.14% | viability, T/C [18] 0.14% | viability, T/C [24] 0.15% | viability, T/C [30] 0.2%
1340 nM: IC50 (second compound 0.1 µM)

C=CC(=O)N1CCN(c2nc(=O)n(-c3c(C)ccnc3C(C)C)c3nc(-c4c(O)cccc4F)c(F)cc23)C(C)C1 (stereo not given) + CNC(C)C(=O)NC1CN(S(=O)(=O)c2cccc(S(=O)(=O)N3CCC4CCC(C(=O)NC(c5ccccc5)c5ccccc5)N4C(=O)C(NC(=O)C(C)NC)C3)c2)CCC2CCC(C(=O)NC(c3ccccc3)c3ccccc3)N2C1=O
> 10000 nM: IC50 (second compound 0.01 µM) | IC50 (second compound 0.0316 µM) | IC50 (second compound 0.1 µM) | IC50 (second compound 0.316 µM) | IC50 (second compound 1 µM)
inactive: viability, T/C [1] 94.4% | viability, T/C [2] 99.5% | viability, T/C [3] 94.5% | viability, T/C [4] 110% | viability, T/C [5] 101% | viability, T/C [6] 82.3% | viability, T/C [7] 85.1% | viability, T/C [8] 84.8% | viability, T/C [9] 86.7% | viability, T/C [10] 84.2% | viability, T/C [11] 87.1% | viability, T/C [12] 75.2% | viability, T/C [13] 70.7% | viability, T/C [14] 78% | viability, T/C [15] 81.5% | viability, T/C [16] 75.7% | viability, T/C [17] 82.7% | viability, T/C [18] 67.3% | viability, T/C [19] 69.2% | viability, T/C [20] 77.2% | viability, T/C [21] 71.5% | viability, T/C [22] 70.9% | viability, T/C [23] 73.9% | viability, T/C [24] 67.7% | viability, T/C [25] 62.8% | viability, T/C [26] 72.4% | viability, T/C [27] 67.5% | viability, T/C [28] 72% | viability, T/C [29] 70.3% | viability, T/C [30] 65.5%

CCN1C(C(=O)NC23CCC(C(=O)O)(CC2)CC3)C(c2cccc(Cl)c2F)C2(C(=O)Nc3cc(Cl)ccc32)C12CCCCC2 (stereo not given) + CNC(C)C(=O)NC1CN(S(=O)(=O)c2cccc(S(=O)(=O)N3CCC4CCC(C(=O)NC(c5ccccc5)c5ccccc5)N4C(=O)C(NC(=O)C(C)NC)C3)c2)CCC2CCC(C(=O)NC(c3ccccc3)c3ccccc3)N2C1=O
> 3000 nM: IC50 (second compound 0.01 µM) | IC50 (second compound 0.0316 µM) | IC50 (second compound 0.1 µM) | IC50 (second compound 0.316 µM) | IC50 (second compound 1 µM)
inactive: viability, T/C (second compound 0.01 µM, first compound 0.00949 µM) 88.3% | viability, T/C (second compound 0.01 µM, first compound 0.03 µM) 86.9% | viability, T/C (second compound 0.01 µM, first compound 0.0949 µM) 87.7% | viability, T/C (second compound 0.01 µM, first compound 0.3 µM) 77.1% | viability, T/C (second compound 0.01 µM, first compound 0.949 µM) 79.8% | viability, T/C (second compound 0.01 µM, first compound 3 µM) 81.2% | viability, T/C (second compound 0.0316 µM, first compound 0.00949 µM) 74.4% | viability, T/C (second compound 0.0316 µM, first compound 0.03 µM) 69.4% | viability, T/C (second compound 0.0316 µM, first compound 0.0949 µM) 70.2% | viability, T/C (second compound 0.0316 µM, first compound 0.3 µM) 74.5% | viability, T/C (second compound 0.0316 µM, first compound 0.949 µM) 66.4% | viability, T/C (second compound 0.0316 µM, first compound 3 µM) 72.3% | viability, T/C (second compound 0.1 µM, first compound 0.00949 µM) 66% | viability, T/C (second compound 0.1 µM, first compound 0.03 µM) 70% | viability, T/C (second compound 0.1 µM, first compound 0.0949 µM) 67.4% | viability, T/C (second compound 0.1 µM, first compound 0.3 µM) 64.6% | viability, T/C (second compound 0.1 µM, first compound 0.949 µM) 67.7% | viability, T/C (second compound 0.1 µM, first compound 3 µM) 66.5% | viability, T/C (second compound 0.316 µM, first compound 0.00949 µM) 54.8% | viability, T/C (second compound 0.316 µM, first compound 0.03 µM) 68% | viability, T/C (second compound 0.316 µM, first compound 0.0949 µM) 60.7% | viability, T/C (second compound 0.316 µM, first compound 0.3 µM) 57.2% | viability, T/C (second compound 0.316 µM, first compound 0.949 µM) 61% | viability, T/C (second compound 0.316 µM, first compound 3 µM) 73% | viability, T/C (second compound 1 µM, first compound 0.00949 µM) 52.8% | viability, T/C (second compound 1 µM, first compound 0.03 µM) 60.8% | viability, T/C (second compound 1 µM, first compound 0.0949 µM) 61.1% | viability, T/C (second compound 1 µM, first compound 0.3 µM) 64% | viability, T/C (second compound 1 µM, first compound 0.949 µM) 61.5% | viability, T/C (second compound 1 µM, first compound 3 µM) 63.2%
